Measured values: ChEMBL document CHEMBL1148467, “Benzoxazinones as PPARgamma agonists. 2. SAR of the amide substituent and in vivo results in a type 2 diabetes model” (J Med Chem, 2004)

Legend:
[1] = target: T1, Peroxisome proliferator-activated receptor gamma (Homo sapiens, UniProt P37231)
T1 sequence (P37231 whole entry): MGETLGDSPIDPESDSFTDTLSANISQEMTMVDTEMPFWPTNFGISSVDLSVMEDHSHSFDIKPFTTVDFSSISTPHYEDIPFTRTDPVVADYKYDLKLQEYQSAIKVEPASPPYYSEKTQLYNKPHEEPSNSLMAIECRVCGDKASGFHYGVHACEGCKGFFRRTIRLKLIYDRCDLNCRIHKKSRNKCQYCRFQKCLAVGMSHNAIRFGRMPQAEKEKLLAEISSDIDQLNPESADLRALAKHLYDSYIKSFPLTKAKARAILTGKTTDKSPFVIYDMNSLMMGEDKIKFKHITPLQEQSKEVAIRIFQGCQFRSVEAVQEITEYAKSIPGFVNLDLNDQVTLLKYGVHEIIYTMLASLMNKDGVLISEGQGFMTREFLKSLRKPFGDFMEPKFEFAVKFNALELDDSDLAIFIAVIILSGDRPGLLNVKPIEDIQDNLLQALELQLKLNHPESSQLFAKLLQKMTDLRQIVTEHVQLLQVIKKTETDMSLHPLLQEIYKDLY
Description: Agonistic activity against PPAR (peroxisome proliferator activated receptor gamma) in Suarus chinesis

[2] = In vitro metabolic stability at 5 uM was determined by incubating with human liver microsomes at 37 degree C; assay type: ADME, Microsome
[3] = Oral bioavailability in rat (dose 30 mg/kg); assay type: ADME, organism-based; conditions: in vivo
[4] = Area under curve was evaluated in rat at 3 mg/kg dose administered intravenously; assay type: ADME, organism-based; design: dose 3 mg/kg, route intravenous; conditions: in vivo, iv
[5] = Half-life in rat at 30 mg/kg dose administered orally; conditions: in vivo, po
[6] = Area under curve was evaluated in rat at 30 mg/kg dose administered orally; conditions: in vivo, po

Row | Compound | EC50 [1] [nM] | further results
1 | O=C(O)Cc1ccccc1OCCC1Oc2ccccc2N(CCCC2CCCC2)C1=O (centres undefined) | 2700 | 
2 | CC(=O)CCCCCN1C(=O)C(CCOc2ccccc2CC(=O)O)Oc2ccccc21 (centres undefined) | 264 | 
3 | CO/N=C(\C)CCCCN1C(=O)C(CCOc2ccccc2CC(=O)O)Oc2ccccc21 (centres undefined) | ~5000 | 
4 | CCCCCCCCCN1C(=O)C(CCOc2ccccc2CC(=O)O)Oc2ccccc21 (centres undefined) | ~5000 | 
5 | CNC(=O)CCCN1C(=O)C(CCOc2ccccc2CC(=O)O)Oc2ccccc21 (centres undefined) | > 5000 | 
6 | O=C(O)Cc1ccccc1OCCC1Oc2ccccc2N(CCCCCCO)C1=O (centres undefined) | 200 | half-life at 5 µM [2]: 0.95 h; bioavailability [3]: 4%; AUC [4]: 2.5 µM·h; half-life [5]: 0.6 h
7 | O=C(O)Cc1ccccc1OCCC1Oc2ccccc2N(CCCCCCCF)C1=O (centres undefined) | 718 | 
8 | CC(C)(C#N)CCCCN1C(=O)C(CCOc2ccccc2CC(=O)O)Oc2ccccc21 (centres undefined) | 359 | 
9 | CC(C)(CCCCN1C(=O)C(CCOc2ccccc2CC(=O)O)Oc2ccccc21)C(=O)O (centres undefined) | 1000 | 
10 | CC(F)(F)CCCCN1C(=O)[C@H](CCOc2ccccc2CC(=O)O)Oc2ccccc21 | 1000 | 
11 | CC(C)CN1C(=O)C(CCOc2ccccc2CC(=O)O)Oc2ccccc21 (centres undefined) | ~5000 | 
12 | O=C(O)Cc1ccccc1OCC[C@H]1Oc2ccccc2N(CCCCCCF)C1=O | 152 | half-life at 5 µM [2]: 1.85 h; bioavailability [3]: 39%; AUC [4]: 93 µM·h; half-life [5]: 7.9 h
13 | NC(=O)CCCCCN1C(=O)C(CCOc2ccccc2CC(=O)O)Oc2ccccc21 (centres undefined) | ~5000 | 
14 | C=CCCCCN1C(=O)C(CCOc2ccccc2CC(=O)O)Oc2ccccc21 (centres undefined) | 208 | 
15 | O=C(O)CCCCN1C(=O)C(CCOc2ccccc2CC(=O)O)Oc2ccccc21 (centres undefined) | > 5000 | 
16 | CN1C(=O)C(CCOc2ccccc2CC(=O)O)Oc2ccccc21 (centres undefined) | > 5000 | 
17 | O=C(O)Cc1ccccc1OCCC1Oc2ccccc2N(CCC2CCCCC2)C1=O (centres undefined) | 300 | 
18 | CCCCCCCCCCN1C(=O)C(CCOc2ccccc2CC(=O)O)Oc2ccccc21 (centres undefined) | 1000 | 

Row | Compound | EC50 [1] [nM] | further results
19 | O=C(O)Cc1ccccc1OCCC1Oc2ccccc2N(CCCCCCCO)C1=O (centres undefined) | 149 | half-life at 5 µM [2]: 1.27 h; bioavailability [3]: 13%; AUC [4]: 2.3 µM·h; half-life [5]: 7 h
20 | CC(C)(C)CCCCN1C(=O)C(CCOc2ccccc2CC(=O)O)Oc2ccccc21 (centres undefined) | 1000 | 
21 | O=C(O)CCCCCN1C(=O)C(CCOc2ccccc2CC(=O)O)Oc2ccccc21 (centres undefined) | > 5000 | 
22 | C/C(CCCCN1C(=O)C(CCOc2ccccc2CC(=O)O)Oc2ccccc21)=N\O (centres undefined) | 10 | half-life at 5 µM [2]: 2.47 h; bioavailability [3]: 16%; AUC [4]: 19.9 µM·h; half-life [5]: 4.2 h
23 | O=C(O)Cc1ccccc1OCCC1Oc2ccccc2N(CCC2CCCC2)C1=O (centres undefined) | ~5000 | 
24 | O=C(O)Cc1ccccc1OCCC1Oc2ccccc2N(CCCCCCF)C1=O (centres undefined) | 117 | half-life at 5 µM [2]: 1.27 h; bioavailability [3]: 100%; AUC [4]: 84 µM·h; half-life [5]: 16 h
25 | CC(C)N1C(=O)C(CCOc2ccccc2CC(=O)O)Oc2ccccc21 (centres undefined) | > 5000 | 
26 | NC(=O)CCCCN1C(=O)C(CCOc2ccccc2CC(=O)O)Oc2ccccc21 (centres undefined) | > 5000 | 
27 | CC(F)(F)CCCCCN1C(=O)C(CCOc2ccccc2CC(=O)O)Oc2ccccc21 (centres undefined) | 534 | 
28 | CCCNC(=O)CN1C(=O)C(CCOc2ccccc2CC(=O)O)Oc2ccccc21 (centres undefined) | > 5000 | 
29 | CC(F)(F)CCCCN1C(=O)[C@@H](CCOc2ccccc2CC(=O)O)Oc2ccccc21 | 295 | 
30 | CS(=O)(=O)NCCCCCCN1C(=O)C(CCOc2ccccc2CC(=O)O)Oc2ccccc21 (centres undefined) | > 5000 | 
31 | CC(F)(F)CCCCN1C(=O)C(CCOc2ccccc2CC(=O)O)Oc2ccccc21 (centres undefined) | 179 | 
32 | CC(=O)NCCCCCCN1C(=O)C(CCOc2ccccc2CC(=O)O)Oc2ccccc21 (centres undefined) | > 5000 | 
33 | O=C(O)Cc1ccccc1OCC[C@@H]1Oc2ccccc2N(CCCCCCF)C1=O | 570 | 
34 | O=C(O)Cc1ccccc1OCCC1Oc2ccccc2N(CC(=O)O)C1=O (centres undefined) | > 5000 | 
35 | CC(C)(O)CCCCN1C(=O)C(CCOc2ccccc2CC(=O)O)Oc2ccccc21 (centres undefined) | 644 | 

Further lines, with some results ahead:

Row | EC50 [1] [nM] | Compound | further results
36 | > 5000 | O=C(O)Cc1ccccc1OCCC1Oc2ccccc2N(CCO)C1=O (centres undefined) | 
37 | 1000 | CC(O)CCCCN1C(=O)C(CCOc2ccccc2CC(=O)O)Oc2ccccc21 (centres undefined) | 
38 | ~5000 | CCCN1C(=O)C(CCOc2ccccc2CC(=O)O)Oc2ccccc21 (centres undefined) | 
39 | 274 | COCCCCN1C(=O)C(CCOc2ccccc2CC(=O)O)Oc2ccccc21 (centres undefined) | 
40 | 234 | CCCCCCCN1C(=O)C(CCOc2ccccc2CC(=O)O)Oc2ccccc21 (centres undefined) | 
41 | ~5000 | CCOCCCN1C(=O)C(CCOc2ccccc2CC(=O)O)Oc2ccccc21 (centres undefined) | 
42 | 1200 | CCCCCCN1C(=O)[C@H](CCOc2ccccc2CC(=O)O)Oc2ccccc21 | 
43 | > 5000 | CCN1C(=O)C(CCOc2ccccc2CC(=O)O)Oc2ccccc21 (centres undefined) | 
44 | ~5000 | CCCCN1C(=O)C(CCOc2ccccc2CC(=O)O)Oc2ccccc21 (centres undefined) | 
45 | 100 | CCCCCCN1C(=O)[C@@H](CCOc2ccccc2CC(=O)O)Oc2ccccc21 | half-life at 5 µM [2]: 1.22 h; bioavailability [3]: 95%; AUC [4]: 327 µM·h; half-life [5]: 14.5 h
46 | 380 | CCCSCCN1C(=O)C(CCOc2ccccc2CC(=O)O)Oc2ccccc21 (centres undefined) | 
47 | 300 | CCCCCCCCN1C(=O)C(CCOc2ccccc2CC(=O)O)Oc2ccccc21 (centres undefined) | 
48 | 274 | COCCCCN1C(=O)[C@@H](CCOc2ccccc2CC(=O)O)Oc2ccccc21 | half-life at 5 µM [2]: > 8.33 h; bioavailability [3]: 41%; AUC [4]: 88 µM·h; half-life [5]: 6.7 h
49 | 243 | CCCCCN1C(=O)C(CCOc2ccccc2CC(=O)O)Oc2ccccc21 (centres undefined) | 
50 | 79 | CC(C)CCCCN1C(=O)C(CCOc2ccccc2CC(=O)O)Oc2ccccc21 (centres undefined) | 
51 | 100 | CCCCCCN1C(=O)C(CCOc2ccccc2CC(=O)O)Oc2ccccc21 (centres undefined) | half-life at 5 µM [2]: 0.883 h; bioavailability [3]: 115%; half-life [5]: 14 h; AUC [6]: 406 µM·h
52 | 260 | CC(=O)CCCCN1C(=O)C(CCOc2ccccc2CC(=O)O)Oc2ccccc21 (centres undefined) | half-life at 5 µM [2]: 0.85 h; bioavailability [3]: 27%; AUC [4]: 5.8 µM·h; half-life [5]: 9.8 h
53 | 1000 | O=C(O)Cc1ccccc1OCCC1Oc2ccccc2N(CCCCCO)C1=O (centres undefined) | 
